Patent US20180127748A1, “METHODS RELATING TO THE PREVENTION AND TREATMENT OF DRUG RESISTANCE” (THE GENERAL HOSPITAL CORPORATION, priority 2015, published 2018)
Entries after “also recorded” stand apart in the source; their conditions may differ.

Key:
[1] = tested on: RPE cells; experiment: Screen of chemical and metabolic stresses for site-specific copy gain (FISH); assay type: cell-based, human; conditions: 24 h treatment: 60 μM H2O2, 2 μg/ml Tunicamycin, 2 mM DTT, 5 mM NAC, 1 μM DMNQ
Method: Cells were treated with the following chemical and metabolic stresses for 24 hours at doses used in the literature: 2 μg/ml Tunicamycin (TU, Abcam), 60 μM H2O2(Thermo Fisher Scientific), reduced-serum DMEM (0.1% FBS), Glucose-free DMEM (No Gluc, GIBCO), 2 mM DTT (Sigma), 5 mM N-acetyl Cysteine (NAC, Sigma), and 1 μM 2,3-Dimethoxy-1,4-naphthoquinone (DMNQ, Sigma). For heat shock (HS) treatment, cells were incubated at 43° C. for 30 minutes and returned to 37° C. for 24 hours prior to collection.
FISH was performed as described in (Manning et al. 2010; Black et al. 2013). For RPE cells, copy gain was scored as any cell with 3 or more distinct foci. Approximately 100 cells for each replicate were scored for all experiments. All FISH experiments include at least 2 biological replicates. For each experiment at least one replicate includes FACS and western blot from the same cells used for FISH. For knockdown experiments, at least two different siRNA were used for each target. Results are presented as the average from both of the independent siRNAs.
FISH was performed as described in (Manning et al. 2010; Black et al. 2013). Probes for 1q12h, 1q telomere, chromosome 8 centromere (alpha satellite), and X centromere (alpha satellite) were purchased from Rainbow Scientific. Probes for Zebrafish BCL9 (CH73-15J19) and Zebrafish IGBP1 (CH73-223D24) were purchased as BAC clones from Children's Hospital Oakland Research Institute (CHORI BacPac) clone repository. Probes for 1q21.2 (BCL9) and 1q23.3 were purchased from Agilent (SureFISH). BACS were prepared utilizing PureLink HiPure™ Plasmid Filter Maxiprep kit (Life Technologies) using the recommended modified wash buffer. Probes were nick translated (Abbot Molecular Kit) in the presence of fluorescently labeled dTTP (Enzo Life Science). Images of multiple planes of fields of nuclei were acquired on an Olympus IX81™ Spinning Disk Microscope and analyzed using Slidebook 5.0™ software. We used a conservative scoring metric for copy gain. Any foci that were touching were scored as a single copy to prevent increased numbers due to normally replicated foci. For RPE cells, copy gain was scored as any cell with 3 or more distinct foci. For 293T cells, copy gain was scored for any cell with 5 or more distinct foci. For UMRC2 cells, copy gain was scored for any cell with 6 or more foci. For SK-N-AS cells, copy gain was scored for any cell with 5 or more foci. For MDA-MB-468 cells, copy gain was scored for any cell with 5 or more foci. For MDA-MB-231 cells, copy gain was scored for any cell with 7 or more foci. Approximately 100 cells for each replicate were scored for all experiments. All FISH experiments include at least 2 biological replicates. For each experiment, at least one replicate includes FACS and western blot from the same cells used for FISH. For knockdown experiments, at least two different siRNA were used for each target. Results are presented as the average from both of the independent siRNAs.

[2] = tested on: RPE cells; experiment: Cell cycle analysis by flow cytometry; assay type: cell-based, human; conditions: for cell cycle progression in hypoxia: 2 mM succinate
Method: Asynchronously growing, or G1/S arrested cells were prepared and fixed as in (Black et al. 2010). Cells were stained with 10 μM EdU for 1 hour prior to collection. Cell cycle was analyzed by PI staining or EdU incorporation using Click-IT EdU™ Flow Cytometry Assay Kit (Life Technologies). Flow cytometry of CD4+ T cells and cell cycle distribution were analyzed using a BD FACS ARIA II™.

[3] = tested on: RPE cells; experiment: FISH for hypoxia-dependent site-specific copy gain; assay type: cell-based, human
Method: Cells were plated onto culture dishes and allowed to adhere for 20-24 hours in normoxia (5% CO2, 21% O2, and 74% N2). For hypoxic treatment, cells were maintained in a HERA™ Cell 150 incubator (Thermo Scientific) flushed with 5% CO2, 1% O2, and balanced with N2 for the duration of the experiment. Incubator calibrations and verifications were carried out by Bianchi Associates Calibrations/Verifications.
For G1/S synchronization, cells were treated with 2 mM hydroxyurea (HU, Sigma) for 20 hours. To release, cells were washed twice with culture medium pre-conditioned in normoxia or hypoxia, and supplied with fresh pre-conditioned media. For JIB-04 treatment, normoxic cells were pre-treated with 62.5 nM JIB-04 (Xcessbio) for 24 hours, and then treated again with JIB-04 and either transferred to 1% O2 or maintained in normoxia for an additional 24 hours. […]
FISH was performed as described in (Manning et al. 2010; Black et al. 2013). For RPE cells, copy gain was scored as any cell with 3 or more distinct foci. Approximately 100 cells for each replicate were scored for all experiments. […]
FISH was performed as described in (Manning et al. 2010; Black et al. 2013). […] Images of multiple planes of fields of nuclei were acquired on an Olympus IX81™ Spinning Disk Microscope and analyzed using Slidebook 5.0™ software. […] Any foci that were touching were scored as a single copy to prevent increased numbers due to normally replicated foci. For RPE cells, copy gain was scored as any cell with 3 or more distinct foci. For 293T cells, copy gain was scored for any cell with 5 or more distinct foci. For UMRC2 cells, copy gain was scored for any cell with 6 or more foci. For SK-N-AS cells, copy gain was scored for any cell with 5 or more foci. For MDA-MB-468 cells, copy gain was scored for any cell with 5 or more foci. For MDA-MB-231 cells, copy gain was scored for any cell with 7 or more foci. Approximately 100 cells for each replicate were scored for all experiments. […]

[4] = biological target: KDM6B (Homo sapiens, UniProt O15054); conditions: Wang et al. 2013; cited from earlier work
[5] = biological target: KDM5A (Homo sapiens, UniProt P29375); conditions: Wang et al. 2013; cited from earlier work
[6] = tested on: KDM4A; experiment: Western blot of KDM4A protein levels in hypoxia; assay type: cell-based, human; conditions: RPE cells, 1% O2; for KDM4A stabilization / protein levels in hypoxia: 2 mM succinate
Method: Western blots were performed as in (Black et al. 2010).
Western Blots. Western blots were performed as in (Black et al. 2010). Briefly, adherent cells were either scraped directly into PBS, or washed with PBS, trypsinized and collected by centrifuging at 2,000 RPM for 5 minutes. For preparation of whole-cell lysates, cell pellets were washed once in ice-cold PBS and resuspended in RIPA lysis buffer [50 mM Tris pH 7.4, 150 mM NaCl, 0.25% Sodium Deoxycholate, 1% NP40, 1 mM EDTA, 10% Glycerol] supplemented with cOmplete protease inhibitor and PhosSTOP phosphatase inhibitor cocktails (Roche). Cells were lysed on ice for 15 minutes and immediately frozen at −80° C. for 10 minutes. Lysates were subsequently sonicated at 70% amplitude for 15 minutes in a QSonica Q700 sonicator and cleared of cell debris by centrifuging at 12,000 RPM for 15 minutes, before being analyzed by western blotting. For HIF1α and HIF2a expression, adherent cells were washed twice with ice-cold PBS and scraped directly in warmed 1× Laemmli buffer. Samples were sonicated at 70% amplitude for 15 minutes in a QSonica Q700™ and boiled at 95° C. for 10 minutes immediately prior to western blotting.

[7] = tested on: KDM4 family; conditions: Wang et al. 2013; cited from earlier work
[8] = tested on: JmjC-containing proteins; conditions: Smith et al. 2007; Black et al. 2012; cited from earlier work

Chain of KDM6B (O15054 whole entry, species assumed): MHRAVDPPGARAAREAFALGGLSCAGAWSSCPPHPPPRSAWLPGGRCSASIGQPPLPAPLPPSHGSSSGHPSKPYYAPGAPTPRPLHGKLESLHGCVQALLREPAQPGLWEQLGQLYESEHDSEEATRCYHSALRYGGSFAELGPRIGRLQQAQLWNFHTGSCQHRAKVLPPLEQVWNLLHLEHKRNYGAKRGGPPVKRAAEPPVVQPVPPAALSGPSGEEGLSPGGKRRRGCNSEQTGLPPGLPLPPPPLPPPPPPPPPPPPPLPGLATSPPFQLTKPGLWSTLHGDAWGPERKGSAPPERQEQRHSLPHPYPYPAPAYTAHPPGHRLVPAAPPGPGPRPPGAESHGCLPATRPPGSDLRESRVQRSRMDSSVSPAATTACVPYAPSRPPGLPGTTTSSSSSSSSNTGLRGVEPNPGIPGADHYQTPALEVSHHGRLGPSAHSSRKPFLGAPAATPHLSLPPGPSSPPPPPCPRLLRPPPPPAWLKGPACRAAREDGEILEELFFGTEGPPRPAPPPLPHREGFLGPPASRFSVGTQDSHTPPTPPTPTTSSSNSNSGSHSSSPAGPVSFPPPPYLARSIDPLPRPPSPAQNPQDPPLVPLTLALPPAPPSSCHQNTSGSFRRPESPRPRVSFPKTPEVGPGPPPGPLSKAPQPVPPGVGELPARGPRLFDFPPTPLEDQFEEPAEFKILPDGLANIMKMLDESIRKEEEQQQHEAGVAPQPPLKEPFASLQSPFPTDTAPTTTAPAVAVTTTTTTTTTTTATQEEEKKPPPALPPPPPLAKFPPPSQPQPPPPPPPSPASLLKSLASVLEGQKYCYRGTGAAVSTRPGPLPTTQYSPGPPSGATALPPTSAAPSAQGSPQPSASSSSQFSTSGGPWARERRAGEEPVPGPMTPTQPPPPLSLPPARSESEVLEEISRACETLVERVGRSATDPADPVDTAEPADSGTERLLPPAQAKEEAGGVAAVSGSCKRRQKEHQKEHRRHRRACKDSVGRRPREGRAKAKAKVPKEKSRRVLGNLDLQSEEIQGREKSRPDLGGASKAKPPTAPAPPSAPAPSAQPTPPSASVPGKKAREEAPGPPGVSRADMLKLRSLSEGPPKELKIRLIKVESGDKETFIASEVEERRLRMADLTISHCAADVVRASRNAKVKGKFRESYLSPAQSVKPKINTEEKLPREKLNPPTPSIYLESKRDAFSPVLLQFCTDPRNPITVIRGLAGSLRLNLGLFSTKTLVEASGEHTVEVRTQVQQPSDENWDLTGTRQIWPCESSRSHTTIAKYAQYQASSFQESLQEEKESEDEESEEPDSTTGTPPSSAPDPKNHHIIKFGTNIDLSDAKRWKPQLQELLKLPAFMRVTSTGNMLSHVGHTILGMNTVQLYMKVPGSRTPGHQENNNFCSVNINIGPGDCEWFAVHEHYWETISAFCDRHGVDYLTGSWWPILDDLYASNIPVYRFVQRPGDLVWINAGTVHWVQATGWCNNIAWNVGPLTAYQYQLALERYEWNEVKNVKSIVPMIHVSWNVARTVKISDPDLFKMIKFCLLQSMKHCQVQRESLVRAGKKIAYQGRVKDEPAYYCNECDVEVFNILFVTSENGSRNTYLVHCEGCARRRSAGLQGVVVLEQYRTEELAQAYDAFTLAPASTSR
Chain of KDM5A (P29375 whole entry, species assumed): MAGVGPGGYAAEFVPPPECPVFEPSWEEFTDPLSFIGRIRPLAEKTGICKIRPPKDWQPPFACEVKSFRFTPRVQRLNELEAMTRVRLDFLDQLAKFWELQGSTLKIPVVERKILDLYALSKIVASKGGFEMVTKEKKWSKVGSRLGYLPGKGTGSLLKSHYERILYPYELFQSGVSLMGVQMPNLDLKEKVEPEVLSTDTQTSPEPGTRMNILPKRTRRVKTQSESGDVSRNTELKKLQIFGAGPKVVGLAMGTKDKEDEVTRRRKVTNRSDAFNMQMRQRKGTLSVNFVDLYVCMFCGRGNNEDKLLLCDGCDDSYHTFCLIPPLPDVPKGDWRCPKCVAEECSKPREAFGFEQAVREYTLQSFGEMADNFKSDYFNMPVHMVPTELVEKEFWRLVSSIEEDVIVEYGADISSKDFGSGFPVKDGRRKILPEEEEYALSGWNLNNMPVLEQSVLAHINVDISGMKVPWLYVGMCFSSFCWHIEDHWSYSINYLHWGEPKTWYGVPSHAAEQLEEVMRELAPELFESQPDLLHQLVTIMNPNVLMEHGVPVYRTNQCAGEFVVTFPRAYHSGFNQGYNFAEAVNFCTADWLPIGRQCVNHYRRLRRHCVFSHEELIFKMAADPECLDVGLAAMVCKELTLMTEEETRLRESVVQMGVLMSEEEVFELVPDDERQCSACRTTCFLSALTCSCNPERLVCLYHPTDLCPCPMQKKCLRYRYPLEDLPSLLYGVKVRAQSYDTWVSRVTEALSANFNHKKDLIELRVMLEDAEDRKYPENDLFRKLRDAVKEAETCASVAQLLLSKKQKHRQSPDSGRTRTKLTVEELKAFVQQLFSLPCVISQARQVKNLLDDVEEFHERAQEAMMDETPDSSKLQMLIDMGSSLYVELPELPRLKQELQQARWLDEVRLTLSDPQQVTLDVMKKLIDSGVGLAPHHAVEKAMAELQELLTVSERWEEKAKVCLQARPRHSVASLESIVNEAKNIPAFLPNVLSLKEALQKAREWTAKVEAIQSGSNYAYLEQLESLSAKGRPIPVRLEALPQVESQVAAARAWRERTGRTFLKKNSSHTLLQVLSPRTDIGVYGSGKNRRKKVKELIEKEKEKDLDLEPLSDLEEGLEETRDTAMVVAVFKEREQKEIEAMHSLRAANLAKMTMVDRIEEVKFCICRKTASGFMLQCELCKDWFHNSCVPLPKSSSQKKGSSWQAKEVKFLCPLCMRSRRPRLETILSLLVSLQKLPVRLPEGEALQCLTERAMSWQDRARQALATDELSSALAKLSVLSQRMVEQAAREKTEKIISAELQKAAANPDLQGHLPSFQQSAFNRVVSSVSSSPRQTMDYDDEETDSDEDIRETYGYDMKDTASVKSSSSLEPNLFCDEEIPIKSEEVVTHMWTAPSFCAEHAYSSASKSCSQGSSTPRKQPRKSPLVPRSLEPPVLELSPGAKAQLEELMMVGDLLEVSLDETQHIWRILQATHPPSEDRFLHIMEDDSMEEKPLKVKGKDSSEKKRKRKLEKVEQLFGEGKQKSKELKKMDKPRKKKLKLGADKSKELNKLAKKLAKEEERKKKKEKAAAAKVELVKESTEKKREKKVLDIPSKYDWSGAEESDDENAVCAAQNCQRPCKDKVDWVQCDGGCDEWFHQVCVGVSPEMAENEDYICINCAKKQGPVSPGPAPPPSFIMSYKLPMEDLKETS

COC1=C(OC)C(=O)c2ccccc2C1=O [DMNQ, 2,3-Dimethoxy-1,4-naphthoquinone]
site-specific copy gain (FISH for 1q12h, Chr 8, 1q23.3, 1q21.2) [1]: did not induce site-specific copy gain; also recorded: do not induce site-specific copy gains

O[C@@H](CS)[C@@H](O)CS [DTT]
site-specific copy gain (FISH for 1q12h, Chr 8, 1q23.3, 1q21.2) [1]: did not induce site-specific copy gain; also recorded: do not induce site-specific copy gains

OO [H2O2]
site-specific copy gain (FISH for 1q12h, Chr 8, 1q23.3, 1q21.2) [1]: does not promote copy gain

Clc1ccc(N/N=C(\c2ccccc2)c2ccccn2)nc1 [JIB-04]
cell cycle profiles in hypoxia ([2]; JIB-04 62.5 nM, 1% O2): did not substantially alter; also recorded: no difference in cell cycle phases
hypoxia-dependent copy gain of 1q12h (FISH) ([3]; 62.5 nM JIB-04 pre-treated 24 h, treated again, 1% O2 24 h): significantly reduced; also recorded: blocks hypoxia-dependent copy gain
inhibition of KDM6B [4]: inhibits
inhibition of KDM5A [5]: inhibits
KDM4A protein levels in hypoxia ([6]; JIB-04 62.5 nM): did not substantially alter; also recorded: does not alter KDM4A protein levels
inhibition of the KDM4 family [7]: inhibits

CC(=O)N[C@@H](CS)C(=O)O [N-Acetyl Cysteine, N-acetyl Cysteine]
site-specific copy gain (FISH for 1q12h, Chr 8, 1q23.3, 1q21.2) [1]: did not induce site-specific copy gain
site-specific copy gain (FISH for 1q12h, Chr 8, 1q23.3, 1q21.2) ([1]; listed as N-acetyl Cysteine): do not induce site-specific copy gains

O=C(O)CCC(=O)O [succinate]
cell cycle progression in hypoxia ([2]; 1% O2): no difference in cell cycle phases
cell cycle progression in hypoxia ([2]; 1% O2, listed as Succinate): did not alter
hypoxia-dependent copy gain of 1q12h (FISH) ([3]; 2 mM succinate, 48 h normoxia then 1% O2 24 h): can be suppressed
hypoxia-dependent copy gain of 1q12h (FISH) ([3]; 2 mM succinate, 48 h normoxia then 1% O2 24 h, listed as Succinate): sufficient to abrogate
inhibition of JmjC-containing proteins [8]: can be inhibited
KDM4A stabilization / protein levels in hypoxia [6]: does not alter KDM4A protein levels
KDM4A stabilization / protein levels in hypoxia ([6]; listed as Succinate): did not alter

Tunicamycin
site-specific copy gain (FISH for 1q12h, Chr 8, 1q23.3, 1q21.2) [1]: does not promote copy gain
